In US20030050192A1, “Herbicidal composition” (priority 1998, published 2003):
Where “and” joins values, the source holds several entries; their conditions need not be identical. Equal values may be shown once.

Legend:
Assay type in all cases: in vivo
Settings in all cases: ten days after application
Setaria [1] = test: Example B2: post-emergent application of herbicide of formula I with/without safener, greenhouse, Setaria
Emex [2] = test: Example B1: post-emergent application of herbicide of formula I with/without safener, greenhouse, Emex
Setaria [3] = test: Example B3: post-emergent application of herbicide of formula I with/without safener, greenhouse, Setaria
Barley = test: Example B2: post-emergent application of herbicide of formula I with/without safener, greenhouse, barley
Protocol: Post-emergent Applications of Mixtures of a Herbicide of Formula I with a Safener of Formulae IIa to IIq to barley
Under greenhouse conditions, barley is grown in plastic pots to the 2.5-leaf stage. In this stage, both the herbicide of formula I alone and the mixture of the herbicide with a safener of formulae IIa to IIq are applied to the test plants. The test substances (Formulation Examples F3 a) and b)) are applied as aqueous suspension with 500 l water/ha. Ten days after the application, the results are evaluated on a percent scale.

Emex [4] = test: Example B2: post-emergent application of herbicide of formula I with/without safener, greenhouse, Emex
Chenopodium [5] = test: Example B1: post-emergent application of herbicide of formula I with/without safener, greenhouse, Chenopodium
Raphanus [6] = test: Example B3: post-emergent application of herbicide of formula I with/without safener, greenhouse, Raphanus
Durum wheat = test: Example B3: post-emergent application of herbicide of formula I with/without safener, greenhouse, durum wheat
Protocol: Post-emergent Applications of Mixtures of a Herbicide of Formula I with a Safener of Formulae IIa to IIq to Durum Wheat.
Under greenhouse conditions, durum wheat is grown in plastic pots to the 2.5-leaf stage. In this stage, both the herbicide of formula I alone and the mixture of the herbicide with a safener of formulae IIa to IIq are applied to the test plants. The test substances (Formulation Examples F3 a) and b)) are applied as aqueous suspension with 500 l water/ha. Ten days after the application, the results are evaluated on a percent scale.

Emex [7] = test: Example B3: post-emergent application of herbicide of formula I with/without safener, greenhouse, Emex
Raphanus [8] = test: Example B2: post-emergent application of herbicide of formula I with/without safener, greenhouse, Raphanus
Chenopodium [9] = test: Example B3: post-emergent application of herbicide of formula I with/without safener, greenhouse, Chenopodium
Raphanus [10] = test: Example B1: post-emergent application of herbicide of formula I with/without safener, greenhouse, Raphanus
Wheat = test: Example B1: post-emergent application of herbicide of formula I with/without safener, greenhouse, wheat
Protocol: Post-emergent Applications of Mixtures of a Herbicide of Formula I with a Safener of Formulae IIa to IIq to Cereals
Under greenhouse conditions, wheat is grown in plastic pots to the 2.5-leaf stage. In this stage, both the herbicide of formula I alone and the mixture of the herbicide with a safener of formulae IIa to IIq are applied to the test plants. The test substances (Formulation Examples F3 a) and b)) are applied as aqueous suspension with 500 l water/ha. Ten days after the application, the results are evaluated on a percent scale.

Setaria [11] = test: Example B1: post-emergent application of herbicide of formula I with/without safener, greenhouse, Setaria
Chenopodium [12] = test: Example B2: post-emergent application of herbicide of formula I with/without safener, greenhouse, Chenopodium
[13] = Herbicide of formula 1 alone 15 g/ha
[14] = Herbicide of formula 1 alone 60 g/ha
[15] = Herbicide of formula 1 alone 250 g/ha
[16] = Herbicide of formula 1 15 g/ha + safener 4 g/ha
[17] = Herbicide of formula 1 60 g/ha + safener 15 g/ha
[18] = Herbicide of formula 1 250 g/ha + safener 60 g/ha

Structure (SMILES): COc1nn(C(=O)NS(=O)(=O)c2ccccc2OC(F)(F)F)c(=O)n1C [Herbicide of formula 1]
- herbicidal effect on Setaria, percent scale (Setaria [1]; [13]): 70%
- herbicidal effect on Setaria, percent scale (Setaria [1]; [14]): 80%
- herbicidal effect on Emex, percent scale (Emex [2]; [13]): 80%
- herbicidal effect on Emex, percent scale (Emex [2]; [14]): 90%
- herbicidal effect on Setaria, percent scale (Setaria [3]; [15]): 80%
- damage to Barley, percent scale (Barley; [13]): 30%
- damage to Barley, percent scale (Barley; [14]): 40%
- herbicidal effect on Emex, percent scale (Emex [4]; [13]): 80%
- herbicidal effect on Emex, percent scale (Emex [4]; [14]): 90%
- herbicidal effect on Chenopodium, percent scale (Chenopodium [5]; [13]): 90% and 80%
- herbicidal effect on Chenopodium, percent scale (Chenopodium [5]; [14]): 90%
- herbicidal effect on Raphanus, percent scale (Raphanus [6]; [15]): 90%
- damage to Durum wheat, percent scale (Durum wheat; [15]): 30%
- herbicidal effect on Emex, percent scale (Emex [7]; [15]): 90%
- herbicidal effect on Raphanus, percent scale (Raphanus [8]; [13]): 80%
- herbicidal effect on Raphanus, percent scale (Raphanus [8]; [14]): 80%
- herbicidal effect on Chenopodium, percent scale (Chenopodium [9]; [15]): 90%
- herbicidal effect on Raphanus, percent scale (Raphanus [10]; [13]): 80%
- herbicidal effect on Raphanus, percent scale (Raphanus [10]; [14]): 80%
- damage to Wheat, percent scale (Wheat; [13]): 10%
- damage to Wheat, percent scale (Wheat; [14]): 20%
- herbicidal effect on Setaria, percent scale (Setaria [11]; [13]): 70%
- herbicidal effect on Setaria, percent scale (Setaria [11]; [14]): 80%
- herbicidal effect on Chenopodium, percent scale (Chenopodium [12]; [13]): 90%
- herbicidal effect on Chenopodium, percent scale (Chenopodium [12]; [14]): 90%

Structure (SMILES): CCCCCC(C)OC(=O)COc1ccc(Cl)c2cccnc12 (stereo not shown) [Safener no. 1,01]
- herbicidal effect on Emex, percent scale (Emex [2]; [16]): 90%
- herbicidal effect on Chenopodium, percent scale (Chenopodium [5]; [16]): 90%
- herbicidal effect on Raphanus, percent scale (Raphanus [10]; [16]): 80%
- damage to Wheat, percent scale (Wheat; [16]): 5%
- herbicidal effect on Setaria, percent scale (Setaria [11]; [16]): 70%

Structure (SMILES): COC(=O)c1cc(-c2ccccc2)n(-c2ccccc2Cl)n1 [Safener no. 2,01]
- herbicidal effect on Setaria, percent scale (Setaria [1]; [16]): 70%
- herbicidal effect on Setaria, percent scale (Setaria [1]; [17]): 70%
- herbicidal effect on Setaria, percent scale (Setaria [3]; [18]): 80%
- damage to Barley, percent scale (Barley; [16]): 0%
- damage to Barley, percent scale (Barley; [17]): 10%
- herbicidal effect on Emex, percent scale (Emex [4]; [16]): 90%
- herbicidal effect on Emex, percent scale (Emex [4]; [17]): 90%
- herbicidal effect on Raphanus, percent scale (Raphanus [6]; [18]): 80%
- damage to Durum wheat, percent scale (Durum wheat; [18]): 10%
- herbicidal effect on Emex, percent scale (Emex [7]; [18]): 90%
- herbicidal effect on Raphanus, percent scale (Raphanus [8]; [16]): 80%
- herbicidal effect on Raphanus, percent scale (Raphanus [8]; [17]): 80%
- herbicidal effect on Chenopodium, percent scale (Chenopodium [9]; [18]): 95%
- herbicidal effect on Chenopodium, percent scale (Chenopodium [12]; [16]): 90%
- herbicidal effect on Chenopodium, percent scale (Chenopodium [12]; [17]): 90%

Structure (SMILES): CCOC(=O)C1=NN(c2ccc(Cl)cc2Cl)C(C)(C(=O)OCC)C1 (stereo not shown) [Safener no. 3,03]
- herbicidal effect on Setaria, percent scale (Setaria [1]; [17]): 80%
- herbicidal effect on Emex, percent scale (Emex [2]; [16]): 90%
- damage to Barley, percent scale (Barley; [17]): 30%
- herbicidal effect on Emex, percent scale (Emex [4]; [17]): 90%
- herbicidal effect on Chenopodium, percent scale (Chenopodium [5]; [16]): 90%
- herbicidal effect on Raphanus, percent scale (Raphanus [8]; [17]): 80%
- herbicidal effect on Raphanus, percent scale (Raphanus [10]; [16]): 80%
- damage to Wheat, percent scale (Wheat; [16]): 5%
- herbicidal effect on Setaria, percent scale (Setaria [11]; [16]): 70%
- herbicidal effect on Chenopodium, percent scale (Chenopodium [12]; [17]): 80%

Structure (SMILES): CCOC(=O)c1nc(C(Cl)(Cl)Cl)n(-c2ccc(Cl)cc2Cl)n1 [Safener no. 2,05]
- herbicidal effect on Setaria, percent scale (Setaria [1]; [17]): 80%
- damage to Barley, percent scale (Barley; [17]): 30%
- herbicidal effect on Emex, percent scale (Emex [4]; [17]): 90%
- herbicidal effect on Raphanus, percent scale (Raphanus [8]; [17]): 90%
- herbicidal effect on Chenopodium, percent scale (Chenopodium [12]; [17]): 90%

Structure (SMILES): FC(F)(F)C(=NOCC1OCCO1)c1ccc(Cl)cc1 [Safener no. 6.02]
- herbicidal effect on Setaria, percent scale (Setaria [1]; [17]): 80%
- herbicidal effect on Emex, percent scale (Emex [2]; [17]): 90%
- damage to Barley, percent scale (Barley; [17]): 30%
- herbicidal effect on Emex, percent scale (Emex [4]; [17]): 90%
- herbicidal effect on Chenopodium, percent scale (Chenopodium [5]; [17]): 80%
- herbicidal effect on Raphanus, percent scale (Raphanus [8]; [17]): 80%
- herbicidal effect on Raphanus, percent scale (Raphanus [10]; [17]): 80%
- damage to Wheat, percent scale (Wheat; [17]): 10%
- herbicidal effect on Setaria, percent scale (Setaria [11]; [17]): 80%
- herbicidal effect on Chenopodium, percent scale (Chenopodium [12]; [17]): 80%
